Measurements taken from US9309200B2, “Benzazepine derivatives, pharmaceutical compositions containing them, and their use in therapy” (AbbVie Deutschland GmbH & Co. KG, priority 2011, dated 2016).

What was measured:
[1] = Metabolic stability in human liver microsomes (microsomal clearance); format: in vitro ADME; settings: human liver microsomes 0.25 mg protein/ml, 0.5 μM test substance, NADPH 1.0 mM, pH 7.4, 37° C.
Method: The metabolic stability of a compound can be measured for example by incubating a solution of this compound with liver microsomes from particular species (for example rat, dog or human) and determining the half-life of the compound under these conditions (R S Obach, Curr Opin Drug Discov Devel. 2001, 4, 36-44). It is possible in this connection to conclude from an observed longer half-life that the metabolic stability of the compound is improved. The stability in the presence of human liver microsomes is of particular interest because it makes it possible to predict the metabolic degradation of the compound in the human liver. Compounds with increased metabolic stability (measured in the liver microsome test) are therefore probably also degraded more slowly in the liver. The slower metabolic degradation in the liver may lead to higher and/or longer-lasting concentrations (active levels) of the compound in the body, so that the elimination half-life of the compounds of the invention is increased. Increased and/or longer-lasting active levels may lead to a better activity of the compound in therapeutic treatment. In addition, an improved metabolic stability may lead to an increased bioavailability after oral administration, because the compound is subject, after absorption in the intestine, to less metabolic degradation in the liver (so-called first pass effect). An increased oral bioavailability may, owing to an increased concentration (active level) of the compound, lead to a better activity of the compound after oral administration.
Metabolic stability was determined as follows:
0.5 μM test substance was preincubated together with human liver microsomes (0.25 mg of microsomal protein/ml) in 0.05 M potassium phosphate buffer of pH 7.4 in microtiter plates at 37° C. for 5 min. The reaction was started by adding NADPH (1.0 mM). After 0, 5, 10, 15, 20 and 30 min, 65 μl aliquots were removed, and the reaction was immediately stopped and cooled with twice the amount of ethanol. The samples were frozen until analyzed. The remaining concentration of undegraded test substance was determined by LC MSMS. The half-life (T½) was determined from the gradient of the signal of test substance/unit time plot, allowing to calculate the half-life of the test substance, assuming first order kinetics, from the decrease in the concentration of the compound with time. The microsomal clearance (mCl) was calculated from mCl=ln 2/T½/(content of microsomal protein in mg/ml)×1000 (modified from references: Di, The Society for Biomolecular Screening, 2003, 453-462; Obach, DMD, 1999 vol 27. N 11, 1350-1359).

[2] = target: T1, human GlyT1c transporter (Homo sapiens, UniProt P48067); test: Radioligand binding assay using recombinant CHO cell membranes expressing human GlyT1; settings: read-out: radioligand binding Kiapp
T1 construct: expressed in transfected cells; host or cells: recombinant CHO cells (membranes); the uptake assay names the line hGlyT1c_5_CHO
T1 sequence (P48067 1-706): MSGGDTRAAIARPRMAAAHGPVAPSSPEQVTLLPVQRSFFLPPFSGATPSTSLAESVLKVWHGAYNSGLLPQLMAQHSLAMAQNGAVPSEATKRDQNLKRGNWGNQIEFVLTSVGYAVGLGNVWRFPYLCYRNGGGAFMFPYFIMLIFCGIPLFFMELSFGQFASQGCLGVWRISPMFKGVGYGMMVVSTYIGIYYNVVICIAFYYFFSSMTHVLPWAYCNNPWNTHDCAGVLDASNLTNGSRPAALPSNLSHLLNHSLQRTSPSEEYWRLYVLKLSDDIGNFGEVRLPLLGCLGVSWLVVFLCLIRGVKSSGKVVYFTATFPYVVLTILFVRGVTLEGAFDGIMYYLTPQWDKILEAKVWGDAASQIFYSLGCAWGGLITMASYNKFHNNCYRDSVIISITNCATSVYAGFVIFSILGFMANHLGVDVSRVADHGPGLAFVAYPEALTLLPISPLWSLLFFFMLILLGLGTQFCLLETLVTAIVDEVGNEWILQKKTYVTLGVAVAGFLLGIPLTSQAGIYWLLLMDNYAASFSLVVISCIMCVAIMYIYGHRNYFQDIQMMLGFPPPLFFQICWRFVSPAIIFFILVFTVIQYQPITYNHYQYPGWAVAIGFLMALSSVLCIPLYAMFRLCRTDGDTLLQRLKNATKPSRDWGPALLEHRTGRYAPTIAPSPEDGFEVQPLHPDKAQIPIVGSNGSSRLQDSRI
Method: 2. Radioligand Binding Assays Using Recombinant CHO Cell Membranes Expressing Human GlyT1:
Radioligand binding to human GlyT1c transporter-expressing membranes was determined as described in Mezler et al., Molecular Pharmacology 74:1705-1715, 2008.

| SMILES | human mCl [1] | Ki [2] |
| --- | --- | --- |
| O=S(=O)(NCCOc1ccc2c(c1)C(Cc1ccccc1)NCCO2)C1CCC1 (stereo not drawn) [Example 52, Cyclobutanesulfonic acid [2-(5-benzyl-2,3,4,5-tetrahydro-benzo[f][1,4]oxazepin-7-yloxy)-ethyl]-amide] | ≦100 μl/min/mg | ≤ 1 µM |
| CCS(=O)(=O)NCCOc1ccc2c(c1)C(Cc1ccccc1)NCCO2 (stereo not drawn) [Example 50, Ethanesulfonic acid [2-(5-benzyl-2,3,4,5-tetrahydro-benzo[f][1,4]oxazepin-7-yloxy)-ethyl]-amide] | ≦50 μl/min/mg | ≤ 10 µM |
| O=S(=O)(CC1CC1)NCCOc1ccc2c(c1)C(Cc1ccccc1)NCCO2 (stereo not drawn) [Example 53, N-[2-(5-Benzyl-2,3,4,5-tetrahydro-benzo[f][1,4]oxazepin-7-yloxy)-ethyl]-C-cyclopropyl-methanesulfonamide] | ≦100 μl/min/mg | ≤ 1 µM |
| CCS(=O)(=O)NCc1cc2c(cc1F)CCCNC2Cc1ccccc1.O=C(O)C(F)(F)F (stereo not drawn) [Example 42, Ethanesulfonic acid (1-benzyl-7-fluoro-2,3,4,5-tetrahydro-1H-benzo[c]azepin-8-ylmethyl)-amide; compound with trifluoro-acetic acid] | ≦50 μl/min/mg | ≤ 1 µM |
| CCCS(=O)(=O)NCCOc1ccc2c(c1)C(Cc1ccccc1)NCCO2 (stereo not drawn) [Example 51, Propane-1-sulfonic acid [2-(5-benzyl-2,3,4,5-tetrahydro-benzo[f][1,4]oxazepin-7-yloxy)-ethyl]-amide] | ≦100 μl/min/mg | ≤ 1 µM |
| Cn1cnc(S(=O)(=O)NCCOc2ccc3c(c2)C(Cc2ccccc2)NCCO3)c1 (stereo not drawn) [Example 48, 1-Methyl-1H-imidazole-4-sulfonic acid [2-(5-benzyl-2,3,4,5-tetrahydro-benzo[f][1,4]oxazepin-7-yloxy)-ethyl]-amide] | ≦50 μl/min/mg | ≤ 0.1 µM |
| O=C(O)/C=C/C(=O)O.O=S(=O)(CC1CC1)NCc1cc2c(cc1F)CCCNC2Cc1ccccc1 (stereo not drawn) [Example 44, N-(1-Benzyl-7-fluoro-2,3,4,5-tetrahydro-1H-benzo[c]azepin-8-ylmethyl)-C-cyclopropyl-methanesulfonamide; compound with (E)-but-2-enedioic acid] | ≦50 μl/min/mg | ≤ 0.1 µM |
| Cn1cnc(S(=O)(=O)NCCOc2cc3c(cc2F)CCCNC3Cc2ccccc2)c1 (stereo not drawn) [Example 45, 1-Methyl-1H-imidazole-4-sulfonic acid [2-(1-benzyl-7-fluoro-2,3,4,5-tetrahydro-1H-benzo[c]azepin-8-yloxy)-ethyl]amide] | ≦50 μl/min/mg | ≤ 0.1 µM |
| CCS(=O)(=O)NCCOc1cc2c(cc1F)CCCNC2Cc1ccccc1 (stereo not drawn) [Example 43, Ethanesulfonic acid [2-(1-benzyl-7-fluoro-2,3,4,5-tetrahydro-1H-benzo-[c]azepin-8-yloxy)-ethyl]-amide] | ≦50 μl/min/mg | ≤ 1 µM |
| O=S(=O)(CC1CC1)NCCOc1cc2c(cc1F)CCCNC2Cc1ccccc1 (stereo not drawn) [Example 46, N-[2-(1-Benzyl-7-fluoro-2,3,4,5-tetrahydro-1H-benzo[c]azepin-8-yloxy)-ethyl]-C-cyclopropyl-methanesulfonamide] | ≦50 μl/min/mg | ≤ 0.1 µM |
| CCS(=O)(=O)NCc1ccc2c(c1)C(Cc1ccc(Cl)cc1)NCCC2 (stereo not drawn) [Example 16, Ethanesulfonic acid [1-(4-chloro-benzyl)-2,3,4,5-tetra-hydro-1H-benzo[c]azepin-8-ylmethyl]-amide] | – | ≤ 10 µM |
| CN1CCCc2ccc(OCCNS(=O)(=O)c3cnn(C)c3)cc2C1Cc1ccccc1 (stereo not drawn) [Example 7, 1-Methyl-1H-pyrazole-4-sulfonic acid [2-(1-benzyl-2-methyl-2,3,4,5-tetrahydro-1H-benzo[c]azepin-8-yloxy)-ethyl]amide] | – | ≤ 0.01 µM |
| Cn1cnc(S(=O)(=O)NCc2ccc3c(c2)C(Cc2cccc(F)c2)NCCC3)c1 (stereo not drawn) [Example 22, 1-Methyl-1H-imidazole-4-sulfonic acid [1-(3-fluoro-benzyl)-2,3,4,5-tetrahydro-1H-benzo[c]azepin-8-ylmethyl]-amide] | – | ≤ 0.01 µM |
| CCCS(=O)(=O)NCc1ccc2c(c1)C(Cc1ccccc1)NCCC2 (stereo not drawn) [Example 32, Propane-1-sulfonic acid (1-benzyl-2,3,4,5-tetrahydro-1H-benzo[c]-azepin-8-ylmethyl)-amide] | – | ≤ 1 µM |
| CCN(Cc1ccc2c(c1)C(Cc1ccccc1)NCCC2)S(=O)(=O)c1cn(C)cn1 (stereo not drawn) [Example 40, 1-Methyl-1H-imidazole-4-sulfonic acid (1-benzyl-2,3,4,5-tetrahydro-1H-benzo[c]azepin-8-ylmethyl)-ethyl-amide] | – | ≤ 0.1 µM |
| CCCS(=O)(=O)NCc1ccc2c(c1)C(Cc1cccc(F)c1)NCCC2 (stereo not drawn) [Example 27, Propane-1-sulfonic acid [1-(3-fluoro-benzyl)-2,3,4,5-tetrahydro-1H-benzo[c]azepin-8-ylmethyl]-amide] | – | ≤ 1 µM |
| Cn1cnc(S(=O)(=O)NCc2ccc3c(c2)C(Cc2ccc(Cl)cc2)NCCC3)c1 (stereo not drawn) [Example 18, 1-Methyl-1H-imidazole-4-sulfonic acid [1-(4-chloro-benzyl)-2,3,4,5-tetrahydro-1H-benzo-[c]azepin-8-ylmethyl]-amide] | – | ≤ 1 µM |
| O=S(=O)(CC1CC1)NCCOc1ccc2c(c1)C(Cc1ccccc1)NCCC2 (stereo not drawn) [Example 4, N-(2-(1-benzyl-2,3,4,5-tetrahydro-1H-benzo[c]azepin-8-yloxy)ethyl)-1-cyclopropylmethanesulfonamide] | – | ≤ 0.1 µM |
| CCCS(=O)(=O)NCCOc1ccc2c(c1)C(Cc1ccccc1)NCCC2 (stereo not drawn) [Example 10, Propane-1-sulfonic acid [2-(1-benzyl-2,3,4,5-tetrahydro-1H-benzo[c]azepin-8-yloxy)-ethyl]-amide] | – | ≤ 0.1 µM |
| Cn1cc(S(=O)(=O)NCc2ccc3c(c2)C(Cc2cccc(F)c2)NCCC3)cn1 (stereo not drawn) [Example 26, 1-Methyl-1H-pyrazole-4-sulfonic acid [1-(3-fluoro-benzyl)-2,3,4,5-tetrahydro-1H-benzo[c]azepin-8-ylmethyl]-amide] | – | ≤ 0.01 µM |
